In one experiment the test system is redroot pigweed. Kind of experiment: Test Example 5: herbicidal effect by foliage application, plastic box (Table 20, symbol N). Particulars: foliage application, 320 g/ha, three weeks after application. The class given is in vivo, redroot pigweed (Amaranthus retroflexus). In a few lines: (§1)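 Foliar spray test: emulsion formulation diluted in water to a set application rate, sprayed onto 14-day-old plants raised in diluvial soil at 25° C to 30° C under glass. Both herbicidal effect and crop effect rated visually three weeks later.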
As for `CCOc1ccc2c(-c3c(O)c(C)nn(C)c3=O)c(-c3ccccc3OC)sc2c1` [3-089], the “N: redroot pigweed, herbicidal effect grade” value is reported as 5 (Herbicidal rate of 90% or more (almost completely withered)).
The same measure, in the same setting: under `CCOc1ccc2c(-c3c(O)c(C)nn(C)c3=O)c(-c3ccccc3OCC)sc2c1` [3-093] stands 5 (Herbicidal rate of 90% or more (almost completely withered)).

For another experiment, the system named is Chinese sprangletop. In words: Test Example 3: herbicidal effect by foliage application, Wagner pot (Table 18, symbol D). It counts as in vivo, chinese sprangletop (Leptochloa chinensis). Particulars: 320 g/ha. In outline:
(§2)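 Plants were sown in alluvial soil held under 0.1–0.5 cm standing water and grown 14 days in a greenhouse at 25–30 °C. An emulsifiable formulation, water-diluted to the set dose, was then sprayed onto the foliage, and effects were scored three weeks later using previously defined criteria.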
In the case of `CCOc1ccc2c(-c3c(O)c(C)nn(C)c3=O)c(-c3ccccc3OC)sc2c1` [3-089], the “herbicidal effect on Chinese sprangletop (D)” value is 4 (Herbicidal rate of 70% or more and less than 90%).
The same measure, in the same setting: under `CCOc1ccc2c(-c3c(O)c(C)nn(C)c3=O)c(-c3ccccc3OCC)sc2c1` [3-093] stands 5 (Herbicidal rate of 90% or more (almost completely withered)).

The next experiment relates to wild oat. Kind of experiment: Test Example 4: herbicidal effect by soil treatment (Table 19, symbol I). It counts as in vivo, wild oat (Avena fatua). Particulars: amount of applied herbicide 320 g/ha. In a few lines: (§3)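 Step 1: sow seeds in sterilized diluvial soil, cover ~1.5 cm. Step 2: spray diluted emulsion onto soil surface at predetermined rate. Step 3: greenhouse, 25–30° C, three weeks. Step 4: grade effect on each plant by earlier criteria.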
With `CCOc1ccc2c(-c3c(O)c(C)nn(C)c3=O)c(-c3ccccc3OC)sc2c1` [3-089], the “I: wild oat, herbicidal effect grade” value is 1 (Herbicidal rate of 5% or more and less than 20%).
The same measure, in the same setting: to `CCOc1ccc2c(-c3c(O)c(C)nn(C)c3=O)c(-c3ccccc3OCC)sc2c1` [3-093] belongs 3 (Herbicidal rate of 40% or more and less than 70%).

The test system of another experiment is wild oat. In words: Test Example 5: herbicidal effect by foliage application, plastic box (Table 20, symbol I). It counts as in vivo, wild oat (Avena fatua). Particulars: foliage application, 320 g/ha, three weeks after application. In outline:
as §1
As to `CCOc1ccc2c(-c3c(O)c(C)nn(C)c3=O)c(-c3ccccc3OC)sc2c1` [3-089], the “I: wild oat, herbicidal effect grade” value was 3 (Herbicidal rate of 40% or more and less than 70%).
As to `CCOc1ccc2c(-c3c(O)c(C)nn(C)c3=O)c(-c3ccccc3OCC)sc2c1` [3-093], the “I: wild oat, herbicidal effect grade” value was 4 (Herbicidal rate of 70% or more and less than 90%).

A further experiment relates to persian speedwell. Kind of experiment: Test Example 5: herbicidal effect by foliage application, plastic box (Table 20, symbol R). Particulars: foliage application, 320 g/ha, three weeks after application. It counts as in vivo, Persian speedwell (Veronica persica). In a few lines:
as §1
Take `CCOc1ccc2c(-c3c(O)c(C)nn(C)c3=O)c(-c3ccccc3OC)sc2c1` [3-089]: the “R: persian speedwell, herbicidal effect grade” value is listed as 5 (Herbicidal rate of 90% or more (almost completely withered)).
On the same count and under the same terms, under `CCOc1ccc2c(-c3c(O)c(C)nn(C)c3=O)c(-c3ccccc3OCC)sc2c1` [3-093] stands 5 (Herbicidal rate of 90% or more (almost completely withered)).

A further experiment deals with windgrass. Kind of experiment: Test Example 4: herbicidal effect by soil treatment (Table 19, symbol L). It counts as in vivo, windgrass (Apera spica-venti). Particulars: amount of applied herbicide 320 g/ha. In outline: as §3
Turning to `CCOc1ccc2c(-c3c(O)c(C)nn(C)c3=O)c(-c3ccccc3OC)sc2c1` [3-089], the “L: windgrass, herbicidal effect grade” value is 4 (Herbicidal rate of 70% or more and less than 90%).
Same read-out and setting: under `CCOc1ccc2c(-c3c(O)c(C)nn(C)c3=O)c(-c3ccccc3OCC)sc2c1` [3-093] stands 4 (Herbicidal rate of 70% or more and less than 90%).

For a further experiment, the system named is Italian ryegrass. In words: Test Example 4: herbicidal effect by soil treatment (Table 19, symbol K). It counts as in vivo, Italian ryegrass (Lolium multiflorum). Particulars: amount of applied herbicide 320 g/ha. In a few lines:
as §3
For the compound `CCOc1ccc2c(-c3c(O)c(C)nn(C)c3=O)c(-c3ccccc3OC)sc2c1` [3-089], the “K: Italian ryegrass, herbicidal effect grade” value was 4 (Herbicidal rate of 70% or more and less than 90%).
The same measure, in the same setting: under `CCOc1ccc2c(-c3c(O)c(C)nn(C)c3=O)c(-c3ccccc3OCC)sc2c1` [3-093] stands 4 (Herbicidal rate of 70% or more and less than 90%).

Another experiment deals with redroot pigweed. Kind of experiment: Test Example 4: herbicidal effect by soil treatment (Table 19, symbol N). The class given is in vivo, redroot pigweed (Amaranthus retroflexus). Particulars: amount of applied herbicide 320 g/ha. In outline:
as §3
Take `CCOc1ccc2c(-c3c(O)c(C)nn(C)c3=O)c(-c3ccccc3OC)sc2c1` [3-089]: the “N: redroot pigweed, herbicidal effect grade” value is 5 (Herbicidal rate of 90% or more (almost completely withered)).
Same read-out and setting: under `CCOc1ccc2c(-c3c(O)c(C)nn(C)c3=O)c(-c3ccccc3OCC)sc2c1` [3-093] stands 5 (Herbicidal rate of 90% or more (almost completely withered)).

The next experiment relates to chickweed. In words: Test Example 4: herbicidal effect by soil treatment (Table 19, symbol P). Particulars: amount of applied herbicide 320 g/ha. The class given is in vivo, common chickweed (Stellaria media). In outline: as §3
For the compound `CCOc1ccc2c(-c3c(O)c(C)nn(C)c3=O)c(-c3ccccc3OC)sc2c1` [3-089], the “P: chickweed, herbicidal effect grade” value is 4 (Herbicidal rate of 70% or more and less than 90%).
The same measure, in the same setting: to `CCOc1ccc2c(-c3c(O)c(C)nn(C)c3=O)c(-c3ccccc3OCC)sc2c1` [3-093] belongs 4 (Herbicidal rate of 70% or more and less than 90%).

The test system of another experiment is Japanese bulrush. Kind of experiment: Test Example 1: herbicidal activity, application before weed generation under submerged conditions (Table 16, symbol B). Particulars: amount of applied herbicide 320 g/ha. The class given is in vivo, Japanese bulrush (Schoenoplectus juncoides). In outline:
(§4)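 Submerged Wagner pots (alluvial soil, 4 cm water) sown with weed seeds and planted with 2.5-leaf rice seedlings; emulsifiable concentrate diluted in water applied to water surface on sowing day. Held in greenhouse at 25-30 °C; injury scored 0-5 by herbicidal rate after three weeks.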
Regarding `CCOc1ccc2c(-c3c(O)c(C)nn(C)c3=O)c(-c3ccccc3OC)sc2c1` [3-089], the “Herbicidal effect, B: Japanese bulrush” value is listed as 5 (Herbicidal rate of 90% or more (almost completely withered)).
Consider `CCOc1ccc2c(-c3c(O)c(C)nn(C)c3=O)c(-c3ccccc3OCC)sc2c1` [3-093], for which the “Herbicidal effect, B: Japanese bulrush” value is listed as 5 (Herbicidal rate of 90% or more (almost completely withered)).

Another experiment deals with rice flat sedge. In words: Test Example 3: herbicidal effect by foliage application, Wagner pot (Table 18, symbol E). It counts as in vivo, rice flat sedge (Cyperus iria). Particulars: 320 g/ha. In a few lines:
as §2
As for `CCOc1ccc2c(-c3c(O)c(C)nn(C)c3=O)c(-c3ccccc3OC)sc2c1` [3-089], the “herbicidal effect on rice flat sedge (E)” value was 5 (Herbicidal rate of 90% or more (almost completely withered)).
Still for that read-out and setting: to `CCOc1ccc2c(-c3c(O)c(C)nn(C)c3=O)c(-c3ccccc3OCC)sc2c1` [3-093] belongs 5 (Herbicidal rate of 90% or more (almost completely withered)).

Another experiment has as its system green foxtail. In words: Test Example 4: herbicidal effect by soil treatment (Table 19, symbol G). The class given is in vivo, green foxtail (Setaria viridis). Particulars: amount of applied herbicide 320 g/ha. In outline:
as §3
For the compound `CCOc1ccc2c(-c3c(O)c(C)nn(C)c3=O)c(-c3ccccc3OC)sc2c1` [3-089], the “G: green foxtail, herbicidal effect grade” value is 4 (Herbicidal rate of 70% or more and less than 90%).
On the same count and under the same terms, to `CCOc1ccc2c(-c3c(O)c(C)nn(C)c3=O)c(-c3ccccc3OCC)sc2c1` [3-093] belongs 5 (Herbicidal rate of 90% or more (almost completely withered)).

In another experiment the test system is windgrass. In words: Test Example 5: herbicidal effect by foliage application, plastic box (Table 20, symbol L). It counts as in vivo, windgrass (Apera spica-venti). Particulars: foliage application, 320 g/ha, three weeks after application. In outline:
as §1
Turning to `CCOc1ccc2c(-c3c(O)c(C)nn(C)c3=O)c(-c3ccccc3OC)sc2c1` [3-089], the “L: windgrass, herbicidal effect grade” value is recorded as 5 (Herbicidal rate of 90% or more (almost completely withered)).
Same read-out and setting: under `CCOc1ccc2c(-c3c(O)c(C)nn(C)c3=O)c(-c3ccccc3OCC)sc2c1` [3-093] stands 5 (Herbicidal rate of 90% or more (almost completely withered)).

In a further experiment the test system is lambsquarters. Kind of experiment: Test Example 5: herbicidal effect by foliage application, plastic box (Table 20, symbol O). It counts as in vivo, lambsquarters (Chenopodium album). Particulars: foliage application, 320 g/ha, three weeks after application. In a few lines: as §1
In the case of `CCOc1ccc2c(-c3c(O)c(C)nn(C)c3=O)c(-c3ccccc3OC)sc2c1` [3-089], the “O: lambsquarters, herbicidal effect grade” value is 4 (Herbicidal rate of 70% or more and less than 90%).
For the compound `CCOc1ccc2c(-c3c(O)c(C)nn(C)c3=O)c(-c3ccccc3OCC)sc2c1` [3-093], the “O: lambsquarters, herbicidal effect grade” value is given as 5 (Herbicidal rate of 90% or more (almost completely withered)).

The test system of a further experiment is southern crabgrass. In words: Test Example 5: herbicidal effect by foliage application, plastic box (Table 20, symbol F). Particulars: foliage application, 320 g/ha, three weeks after application. It counts as in vivo, southern crabgrass (Digitaria ciliaris). In a few lines:
as §1
On to `CCOc1ccc2c(-c3c(O)c(C)nn(C)c3=O)c(-c3ccccc3OC)sc2c1` [3-089], for which the “F: southern crabgrass, herbicidal effect grade” value was 4 (Herbicidal rate of 70% or more and less than 90%).
Still for that read-out and setting: under `CCOc1ccc2c(-c3c(O)c(C)nn(C)c3=O)c(-c3ccccc3OCC)sc2c1` [3-093] stands 5 (Herbicidal rate of 90% or more (almost completely withered)).

The next experiment relates to Japanese bulrush. In words: Test Example 2: herbicidal activity, application during weed generation under submerged conditions (Table 17, symbol B). The class given is in vivo, Japanese bulrush (Schoenoplectus juncoides). Particulars: AAH 320 g/ha; application during weed generation, submerged conditions. In outline: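 Mixed weed seedlings in alluvial soil under a 4 cm water layer, greenhouse-grown at 25–30° C. Compound given as a diluted emulsion into the floodwater at the 1–2 leaf stage; response graded after three weeks.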
Regarding `CCOc1ccc2c(-c3c(O)c(C)nn(C)c3=O)c(-c3ccccc3OC)sc2c1` [3-089], the “herbicidal effect rating, B: Japanese bulrush” value is 5 (Herbicidal rate of 90% or more (almost completely withered)).
The same measure, in the same setting: to `CCOc1ccc2c(-c3c(O)c(C)nn(C)c3=O)c(-c3ccccc3OCC)sc2c1` [3-093] belongs 5 (Herbicidal rate of 90% or more (almost completely withered)).

A further experiment deals with oval-leafed pondweed. Kind of experiment: Test Example 1: herbicidal activity, application before weed generation under submerged conditions (Table 16, symbol C). The class given is in vivo, oval-leafed pondweed (Monochoria vaginalis). Particulars: amount of applied herbicide 320 g/ha. In a few lines: as §4
Regarding `CCOc1ccc2c(-c3c(O)c(C)nn(C)c3=O)c(-c3ccccc3OC)sc2c1` [3-089], the “Herbicidal effect, C: oval-leafed pondweed” value is listed as 5 (Herbicidal rate of 90% or more (almost completely withered)).
Still for that read-out and setting: under `CCOc1ccc2c(-c3c(O)c(C)nn(C)c3=O)c(-c3ccccc3OCC)sc2c1` [3-093] stands 5 (Herbicidal rate of 90% or more (almost completely withered)).

The values above are taken from patent publication US20230085307A1, “PYRIDAZINONE COMPOUND AND HERBICIDE” (NISSAN CHEMICAL CORPORATION, priority 2019, published 2023).
